The text below walks through data of patent publication US20230219965A1 (KSQ Therapeutics, Inc., priority 2020, published 2023).

In data set [1] the test system is Ub-PCNA levels in the nucleus of ES2 cells (USP1 activity). As to the kind of experiment: ES2 Ub-PCNA immunofluorescence (IF) assay. In kind it is cell-based. Conditions: Homo sapiens, ES-2; ES2 cells, 3 hours, Ub-PCNA immunofluorescence; read-out: USP1 IC50 (Ub-PCNA). The method in brief:
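Cells plated overnight, then compound-treated for 3 h at 37° C (0.3% DMSO final), methanol-fixed and stained with anti-Ub-PCNA plus DAPI. Per-nucleus Ub-PCNA intensity imaged; cells above the 95% cutoff of untreated wells counted as positive, and percent positive cells used to derive AC50.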

In a further data set the target is USP1/UAF1 enzyme (Homo sapiens, UniProt O94782). Nature of the data set: USP1/UAF1 deubiquitination assay (ubiquitin-rhodamine 110 substrate). In kind it is biochemical. Conditions: read-out: USP1 IC50 (Ub-Rho). A digest of the protocol:
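0.05 nM USP1/UAF1 was preincubated 10 min with compounds (dose response from 10 μM) in 50 mM Tris-HCl pH 7.8, 0.5 mM EDTA, 0.01% BSA, 1 mM DTT, 0.01% Tween-20. 150 nM ubiquitin-rhodamine 110 started the reaction, read kinetically 30 min at Ex480/Em540; IC50 by four-parameter fit versus no-enzyme and DMSO controls.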

Data set [2] in a line: Liver microsomal metabolic stability, rat liver microsomes (RLM). Conditions: rat, liver microsomes, t1/2 (min) in RLM, 1 μM compound, 1 mg/mL microsomes, NADPH. For orientation: Liver microsomes are vesicles of endoplasmic reticulum, rich in cytochrome P450 enzymes.
Data set [3] is described as follows: ADME solubility determination in PBS at pH 2.0 and pH 7.4. The following applies: phosphate buffered saline, 25 °C, thermodynamic from solid. The format is physicochemical. A digest of the protocol:
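Dried 10 mM DMSO stock residues taken up in PBS pH 7.4 or pH 2.0, shaken 24 h at 25° C. After centrifugation, supernatant quantified by LC-MS/MS against a standard of known concentration, with a dilution factor applied.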

Data set [4] is described as follows: Liver microsomal metabolic stability, human liver microsomes (HLM). The following applies: human, liver microsomes.
Setting [5] is: pH 2, aqueous buffer, PBS pH 2.0, 25° C., read-out: Solubility at pH 2.0.
Setting [6] is: pH 7.4, aqueous buffer, PBS pH 7.4, 25° C., read-out: Solubility at pH 7.4.

Read-outs that look alike come from different tables or passages of the source.

Sequence of USP1/UAF1 enzyme (O94782 whole entry): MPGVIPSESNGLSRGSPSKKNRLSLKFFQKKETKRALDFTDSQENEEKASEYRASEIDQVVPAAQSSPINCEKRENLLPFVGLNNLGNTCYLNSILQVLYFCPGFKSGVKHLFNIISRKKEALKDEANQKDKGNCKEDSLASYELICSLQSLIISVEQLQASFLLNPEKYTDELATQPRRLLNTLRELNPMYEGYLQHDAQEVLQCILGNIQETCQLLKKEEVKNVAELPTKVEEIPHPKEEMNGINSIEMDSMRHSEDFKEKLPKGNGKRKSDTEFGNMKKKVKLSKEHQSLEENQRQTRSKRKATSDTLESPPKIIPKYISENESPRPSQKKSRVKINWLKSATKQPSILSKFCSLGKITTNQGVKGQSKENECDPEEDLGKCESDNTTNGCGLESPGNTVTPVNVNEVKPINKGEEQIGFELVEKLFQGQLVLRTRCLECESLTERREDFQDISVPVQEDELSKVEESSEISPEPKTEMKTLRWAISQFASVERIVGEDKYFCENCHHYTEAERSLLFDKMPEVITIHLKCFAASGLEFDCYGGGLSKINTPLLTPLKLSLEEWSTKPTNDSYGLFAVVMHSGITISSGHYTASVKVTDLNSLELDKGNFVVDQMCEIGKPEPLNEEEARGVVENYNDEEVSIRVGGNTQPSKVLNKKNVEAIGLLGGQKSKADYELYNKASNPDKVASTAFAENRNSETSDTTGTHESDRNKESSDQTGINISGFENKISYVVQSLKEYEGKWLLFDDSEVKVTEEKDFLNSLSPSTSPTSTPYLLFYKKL
Sequence of USP1/UAF1 enzyme (Q8TAF3 whole entry partner): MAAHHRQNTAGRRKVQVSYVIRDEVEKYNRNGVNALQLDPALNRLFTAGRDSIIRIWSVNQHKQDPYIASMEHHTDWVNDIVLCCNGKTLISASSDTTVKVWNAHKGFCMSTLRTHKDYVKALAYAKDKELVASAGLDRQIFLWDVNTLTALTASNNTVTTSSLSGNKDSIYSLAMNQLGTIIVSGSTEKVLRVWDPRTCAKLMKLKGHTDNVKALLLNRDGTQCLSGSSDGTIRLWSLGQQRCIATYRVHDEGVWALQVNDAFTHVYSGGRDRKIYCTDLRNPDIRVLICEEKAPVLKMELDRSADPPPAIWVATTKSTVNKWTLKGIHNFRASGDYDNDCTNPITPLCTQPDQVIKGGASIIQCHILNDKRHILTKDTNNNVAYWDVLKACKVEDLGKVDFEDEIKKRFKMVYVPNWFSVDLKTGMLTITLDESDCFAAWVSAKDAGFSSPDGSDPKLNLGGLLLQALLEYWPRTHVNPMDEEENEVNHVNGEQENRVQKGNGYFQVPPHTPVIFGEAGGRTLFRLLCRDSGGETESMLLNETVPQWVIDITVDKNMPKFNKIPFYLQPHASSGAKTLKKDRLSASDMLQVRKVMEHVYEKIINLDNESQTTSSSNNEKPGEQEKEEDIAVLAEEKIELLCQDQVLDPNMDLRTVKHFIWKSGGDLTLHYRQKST

One may read the IC50 as the midpoint of a concentration-inhibition curve. As a reminder, the half-life is the time needed for the level to fall by half in the phase considered. Lower therefore signals rapid decline. Usually solubility stands for the concentration that dissolves in the medium under given conditions. In the case of `CCn1cc(C(F)(F)F)nc1-c1ccc(CN2C(=O)CCn3nc(-c4c(Cl)cnn4C(C)C)nc32)cn1` [Example 186], the IC50 in data set [1] is 100 to 500 nM; on USP1/UAF1 enzyme, < 100 nM. For the same molecule, the half-life at 1 μM in data set [2] and in data set [4] was > 25 min in each case. The solubility at 24 h in data set [3] (setting [5]) and in data set [3] (setting [6]) was < 10 µM each time.
For the molecule `CCn1cc(C(F)(F)F)nc1-c1ccc([C@@H](C)N2C(=O)CCn3nc(-c4c(OC)ncnc4C4CC4)cc32)cc1` [Example 125], the concentration for half-maximal inhibition (IC50) (in data set [1]; at USP1/UAF1 enzyme) was < 100 nM throughout. For the same molecule, the half-life at 1 μM in data set [2] and in data set [4] was > 25 min throughout. The figures for the solubility at 24 h in data set [3] (setting [5]) and in data set [3] (setting [6]) were ≥ 10 µM and < 10 µM, respectively.
Take `CCn1cc(C(F)(F)F)nc1-c1ccc(CN2C(=O)CCn3nc(-c4c(C)cnn4C(C)C)cc32)cc1` [Example 9, 4-(4-(1-ethyl-4-(trifluoromethyl)-1H-imidazol-2-yl)benzyl)-2-(1-isopropyl-4-methyl-1H-pyrazol-5-yl)-6,7-dihydropyrazolo[1,5-a]pyrimidin-5(4H)-one]: the IC50 (in data set [1]; on USP1/UAF1 enzyme) was < 100 nM each time. In addition, the half-life at 1 μM in data set [2] and in data set [4] was < 25 min each time. Further, the solubility at 24 h in data set [3] (setting [5]) and in data set [3] (setting [6]) was ≥ 10 µM each time.
Turning to `CCn1cc(C(F)(F)F)nc1-c1ccc(C(C)N2CCCn3nc(-c4c(OC)ncnc4C4CC4)cc32)cc1` (stereo not drawn) [Example 66], the IC50 (in data set [1]; on USP1/UAF1 enzyme) was < 100 nM throughout. The half-life at 1 μM in data set [2] and in data set [4] was < 25 min throughout. The figures for the solubility at 24 h in data set [3] (setting [5]) and in data set [3] (setting [6]) were ≥ 10 µM and < 10 µM, respectively.
As to `Cc1cnn(C(C)C)c1-c1nc2n(n1)CCC(=O)N2Cc1ccc(-c2nc(C(F)(F)F)cn2C(C)C)cc1` [Example 38], the IC50 (in data set [1]; on USP1/UAF1 enzyme) was < 100 nM in each case. Also, the half-life at 1 μM in data set [2] and in data set [4] was < 25 min each time. Moreover, the solubility at 24 h in data set [3] (setting [5]) and in data set [3] (setting [6]) was < 10 µM in each case.
As for `CCn1cc(C(F)(F)F)nc1-c1ccc([C@H](C)N2C(=O)CCn3nc(-c4c(OC)ncnc4C4CC4)nc32)cc1` [Example 183], the IC50 (in data set [1]; at USP1/UAF1 enzyme) was < 100 nM throughout. The values for the half-life at 1 μM in data set [2] and in data set [4] were > 25 min and < 25 min, respectively. Also, the solubility at 24 h in data set [3] (setting [5]) and in data set [3] (setting [6]) was ≥ 10 µM in each case.
In the case of `Cc1cc(C(F)(F)F)nn1-c1ccc(CN2C(=O)CCn3nc(-c4c(Cl)cnn4C(C)C)cc32)cc1` [Example 86], the figures for the half-inhibitory concentration (IC50) (in data set [1]; at USP1/UAF1 enzyme) were 100 to 500 nM and < 100 nM, respectively. For the same molecule, the half-life at 1 μM in data set [2] and in data set [4] was > 25 min throughout. The solubility at 24 h in data set [3] (setting [5]) and in data set [3] (setting [6]) was < 10 µM throughout.
For `COc1ncnc(C2CC2)c1-c1nc2n(n1)CCC(=O)N2[C@@H](C)c1ccc(-c2nc(C(F)(F)F)cn2C(C)C)c(F)c1` [Example 173], the IC50 (in data set [1]; on USP1/UAF1 enzyme) was < 100 nM in each case. The half-life at 1 μM in data set [2] and in data set [4] was > 25 min each time. The solubility at 24 h in data set [3] (setting [5]) and in data set [3] (setting [6]) was ≥ 10 µM throughout.
Regarding `CCn1cc(C(F)(F)F)nc1-c1ccc(C(C)N2C(=O)CCn3nc(-c4c(Cl)cnn4C(C)C)cc32)cc1` (stereo not drawn) [Example 113], the IC50 (in data set [1]; on USP1/UAF1 enzyme) was < 100 nM in each case. Also, the half-life at 1 μM in data set [2] and in data set [4] was < 25 min in each case. For the same molecule, the solubility at 24 h in data set [3] (setting [5]) and in data set [3] (setting [6]) was < 10 µM throughout.
On to `CCn1cc(C(F)(F)F)nc1-c1ccc(NC2CCCn3nc(-c4c(C#N)cnn4C(C)C)cc32)cc1F` (stereo not drawn) [Example 266, 5-(4-((4-(1-ethyl-4-(trifluoromethyl)-1H-imidazol-2-yl)-3-fluorophenyl)amino)-4,5,6,7-tetrahydropyrazolo[1,5-α]pyridin-2-yl)-1-isopropyl-1H-pyrazole-4-carbonitrile], for which the IC50 in data set [1] is 100 to 500 nM; at USP1/UAF1 enzyme, < 100 nM. The half-life at 1 μM in data set [2] and in data set [4] was > 25 min in each case. The solubility at 24 h in data set [3] (setting [5]) and in data set [3] (setting [6]) was < 10 µM in each case.
`CCn1cc(C(F)(F)F)nc1-c1ccc(NC2CCCn3nc(-c4c(Cl)cnn4C(C)C)cc32)cc1` (stereo not drawn) [Example 237, 2-(4-chloro-1-isopropyl-1H-pyrazol-5-yl)-N-(4-(1-ethyl-4-(trifluoromethyl)-1H-imidazol-2-yl)phenyl)-4,5,6,7-tetrahydropyrazolo[1,5-α]pyridin-4-amine]: the concentration for half-maximal inhibition (IC50) (in data set [1]; at USP1/UAF1 enzyme) was < 100 nM each time. In addition, the half-life at 1 μM in data set [2] is < 25 min; in data set [4], > 25 min. Besides, the solubility at 24 h in data set [3] (setting [5]) and in data set [3] (setting [6]) was < 10 µM throughout.
For `CC(C)n1ncc(Cl)c1-c1cc2n(n1)CCC(=O)N2Cc1ccc(-c2nc(C(F)(F)F)cn2C)c(F)c1` [Example 16, 2-(4-chloro-1-isopropyl-1H-pyrazol-5-yl)-4-(3-fluoro-4-(1-methyl-4-(trifluoromethyl)-1H-imidazol-2-yl)benzyl)-6,7-dihydropyrazolo[1,5-a]pyrimidin-5(4H)-one], the half-maximal inhibitory concentration (IC50) (in data set [1]; on USP1/UAF1 enzyme) was < 100 nM each time. Moreover, the figures for the half-life at 1 μM in data set [2] and in data set [4] were < 25 min and > 25 min, respectively. For the same molecule, the solubility at 24 h in data set [3] (setting [5]) and in data set [3] (setting [6]) was < 10 µM throughout.
For the molecule `COc1ncnc(C2CC2)c1-c1nc2n(n1)CCC(=O)N2Cc1ccc(-c2nc(C(F)(F)F)cn2C(C)C)c(F)c1OC` [Example 210], the half-maximal inhibitory concentration (IC50) (in data set [1]; at USP1/UAF1 enzyme) was < 100 nM each time. The half-life at 1 μM in data set [2] and in data set [4] was > 25 min in each case. The solubility at 24 h in data set [3] (setting [5]) and in data set [3] (setting [6]) was ≥ 10 µM each time.
Consider `CCn1cc(C(F)(F)F)nc1-c1ccc(CN2C(=O)CCn3nc(-c4c(Cl)cnn4[C@@H](C)COC)cc32)cc1F` [Example 132], for which the IC50 (in data set [1]; at USP1/UAF1 enzyme) was < 100 nM throughout. Besides, the half-life at 1 μM in data set [2] and in data set [4] was < 25 min throughout. Also, the solubility at 24 h in data set [3] (setting [5]) and in data set [3] (setting [6]) was < 10 µM each time.
In the case of `COc1cc(C(F)(F)F)nn1-c1ccc(CN2C(=O)CCn3nc(-c4c(Cl)cnn4C(C)C)cc32)cc1` [Example 96], the IC50 (in data set [1]; at USP1/UAF1 enzyme) was < 100 nM in each case. In addition, the half-life at 1 μM in data set [2] and in data set [4] was > 25 min throughout. Also, the solubility at 24 h in data set [3] (setting [5]) and in data set [3] (setting [6]) was < 10 µM throughout.
Turning to `CCn1cc(C(F)(F)F)nc1-c1ccc([C@H](C)N2CCCn3nc(-c4c(Cl)cnn4C(C)C)cc32)cc1` (single isomer, unassigned) [Example 67], the IC50 (in data set [1]; on USP1/UAF1 enzyme) was < 100 nM in each case. The half-life at 1 μM in data set [2] and in data set [4] was < 25 min in each case. For the same molecule, the solubility at 24 h in data set [3] (setting [5]) is ≥ 10 µM; in data set [3] (setting [6]) it was < 10 µM.
Turning to `CCn1cc(C(F)(F)F)nc1-c1ccc(CN2C(=O)CCn3nc(-c4c(OC)ncnc4C4CC4)nc32)c(OC)c1F` [Example 217], the IC50 (in data set [1]; on USP1/UAF1 enzyme) was < 100 nM in each case. Also, the half-life at 1 μM in data set [2] and in data set [4] was > 25 min each time. In addition, the solubility at 24 h in data set [3] (setting [5]) and in data set [3] (setting [6]) was ≥ 10 µM in each case.
